Data published in patent US20260028352A1, “MACROCYCLIC IMIDAZO [1,2-B] PYRIDAZINE DERIVATIVE, PREPARATION METHOD THEREFOR, AND USE THEREOF” (SUZHOU LANGRUI BIOPHARMACEUTICAL CO., LTD., priority 2022, published 2026).
Like-named read-outs stand apart in the source and are kept apart here.

Assays:
[1] = system: Ba/F3-TPM3-NTRK1-G595R cells; assay: Growth inhibition of Ba/F3-TPM3-NTRK1-G595R cells (Cell Titer-Glo); assay type: cell-based; settings: 72 hours, CTG; read-out: inhibitory activity IC50 Ba/F3-TPM3-NTRK1-G595R
Method in brief: (§1)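 Ba/F3 cells were exposed for 72 hours to serially DMSO-diluted compound at a top final concentration of 10 μM. Viability was read by Cell Titer-Glo luminescence after the plate equilibrated 30 min at room temperature and was then shaken 1 hour in the dark at room temperature.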

[2] = target: TRKA^F589L kinase (Homo sapiens (Human), UniProt P04629, F589L); assay: Inhibitory activity against TRKA(F589L) kinase (Caliper mobility shift); assay type: biochemical; settings: in vitro kinase assay
Experimental: Kinase Assay Process: 1× Kinase buffer was prepared. […] The compounds were serially diluted into 10 concentrations ([…], 0.15, and 0.05 nM) using a Precision 3-fold dilution method. By using the Echo550 liquid handler, 250 nL of the 100-fold final concentration compound was transferred to an OptiPlate-384F plate. a 2.5× final concentration kinase solution was prepared using 1× Kinase buffer. 10 μL of the 2.5× final concentration kinase solution was added to the compound wells and the positive control wells, and 10 μL of 1× Kinase buffer was added to the negative control wells. The plate was centrifuged at 1000 rpm for 30 seconds, vortexed for mixing, and then incubated at room temperature for 10 minutes. A mixture of 5/3× final concentration of ATP and Kinase Substrate 22 was prepared using 1× Kinase buffer. 15 μL of the mixture of the 5/3× final concentration ATP and the substrate was added to initiate the reaction, the 384-well plate was centrifuged at 1000 rpm for 30 seconds, vortexed for mixing, and incubated at room temperature for the required time. 30 μL of the termination solution was added to stop the kinase reaction, the plate was centrifuged at 1000 rpm for 30 seconds, and vortexed for mixing. The conversion rate was measured using the Caliper EZ Reader.
Data Analysis: the inhibition rate was calculated as follows:
% Inhibition=(Conversion %_max−conversion %_sample)÷(Conversion %_max−conversion %_min)×100
Conversion %_sample is the conversion rate reading for the sample; Conversion %_min is the average value of the negative control wells, representing the conversion rate for wells without enzyme activity: Conversion %_max is the average value of the positive control wells, representing the conversion rate for wells without compound inhibition. A dose-response curve was fitted using the log concentration of the compound as the X-axis and the percentage inhibition as the Y-axis. The log(inhibitor) vs. response-variable slope of the GraphPad Prism 5 software was used to fit the dose-response curve, and the IC50 value for each compound was obtained. The calculation formula is:
Y=Bottom+(Top−Bottom)/(1+10^((Log IC50−X)*HillSlope)).
wherein X represents the concentration of the compound to be tested; Y represents the inhibition rate at the concentration X: Top refers to the maximum response: Bottom refers to the baseline response; HillSlope refers to the slope of the curve (i.e., the gradient).

[3] = ether bond, 2.0 h
[4] = target: TRKA^WT kinase (Homo sapiens (Human), UniProt P04629); assay: Inhibitory activity against TRKA WT kinase (Caliper mobility shift); assay type: biochemical; settings: in vitro kinase assay
Method in brief: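 Kinase preincubated 10 min at room temperature with compound (10-point 3-fold series from 1000 nM), then reaction started with ATP and Kinase Substrate 22. Substrate conversion read by Caliper mobility shift; IC50 from variable-slope log(inhibitor)–response fit of % inhibition versus no-enzyme and no-compound controls.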

[5] = system: Ba/F3-TPM3-NTRK1-G667C cells; assay: Growth inhibition of Ba/F3-TPM3-NTRK1-G667C cells (Cell Titer-Glo); assay type: cell-based; settings: 72 hours, CTG; read-out: inhibitory activity IC50 Ba/F3-TPM3-NTRK1-G667C
Method in brief: as §1

[6] = system: Ba/F3-TPM3-NTRK1-WT cells; assay: Growth inhibition of Ba/F3-TPM3-NTRK1-WT cells (Cell Titer-Glo); assay type: cell-based; settings: 72 hours, CTG; read-out: inhibitory activity IC50 Ba/F3-TPM3-NTRK1-WT
Method in brief: as §1

TRKA^F589L kinase, sequence (P04629 33-796 F589L): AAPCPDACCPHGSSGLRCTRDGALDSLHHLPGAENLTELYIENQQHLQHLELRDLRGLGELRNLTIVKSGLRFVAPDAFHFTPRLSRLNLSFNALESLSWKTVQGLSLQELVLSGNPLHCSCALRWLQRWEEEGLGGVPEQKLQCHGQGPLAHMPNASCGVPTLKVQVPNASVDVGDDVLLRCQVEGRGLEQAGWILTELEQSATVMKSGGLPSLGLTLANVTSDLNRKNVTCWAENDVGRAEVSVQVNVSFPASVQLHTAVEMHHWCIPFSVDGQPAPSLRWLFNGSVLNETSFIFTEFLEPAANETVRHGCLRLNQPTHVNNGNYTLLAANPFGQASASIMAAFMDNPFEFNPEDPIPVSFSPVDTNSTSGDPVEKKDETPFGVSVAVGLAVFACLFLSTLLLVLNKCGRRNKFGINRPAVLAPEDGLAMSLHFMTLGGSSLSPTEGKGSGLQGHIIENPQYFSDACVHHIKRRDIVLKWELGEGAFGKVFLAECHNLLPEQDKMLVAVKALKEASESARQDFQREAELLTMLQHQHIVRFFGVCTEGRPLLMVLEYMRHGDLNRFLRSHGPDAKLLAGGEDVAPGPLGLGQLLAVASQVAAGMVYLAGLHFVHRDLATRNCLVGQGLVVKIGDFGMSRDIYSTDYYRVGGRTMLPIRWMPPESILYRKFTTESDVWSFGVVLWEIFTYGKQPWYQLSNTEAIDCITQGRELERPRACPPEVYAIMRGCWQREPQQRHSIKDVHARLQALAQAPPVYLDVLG
TRKA^WT kinase, sequence (P04629 33-796): as the sequence (P04629 33-796 F589L) above, with L557F counted along it

IC50 [1]	IC50 [2]	IC50 [4]	IC50 [5]	IC50 [6]	Structure (SMILES)	ring closure, isolated yield ([3]; from OCCc1ccnc(-c2cnc3ccc(NCc4ccccc4O)nn23)c1, 14-membered ring, PPh3/DIAD, THF, 16.6 mM, 60.0 °C)	ring closure, isolated yield ([3]; from CC(Nc1ccc2ncc(-c3cc(CO)ccn3)n2n1)c1ccccc1O, 13-membered ring, SOCl2, K2CO3, DCM/DMF, 11.0 mM, 90.0 °C, 2 steps)	ring closure, isolated yield ([3]; from OCc1ccnc(-c2cnc3ccc(NCc4cc(F)ccc4O)nn23)c1, 13-membered ring, SOCl2, K2CO3, DCM/DMF, 20.3 mM, 90.0 °C, 2 steps)	ring closure, isolated yield ([3]; from CC(Nc1ccc2ncc(-c3cc(CO)ccn3)n2n1)c1cc(F)ccc1O, 13-membered ring, SOCl2, K2CO3, DCM/DMF, 15.2 mM, 90.0 °C, 2 steps)	ring closure, isolated yield ([3]; from OCc1ccnc(-c2cnc3ccc(NCc4ccccc4O)nn23)c1, 13-membered ring, SOCl2, K2CO3, DCM/DMF, 22.8 mM, 90.0 °C, 2 steps)	ring closure, isolated yield ([3]; from CC(Nc1ccc2ncc(-c3cncc(CO)c3)n2n1)c1cc(F)ccc1O, 13-membered ring, SOCl2, K2CO3, DCM/DMF, 15.7 mM, 90.0 °C, 2 steps)
562 nM	< 5 nM	2.46 nM	562 nM	3.4 nM	c1ccc2c(c1)CNc1ccc3ncc(n3n1)-c1cc(ccn1)CCO2 [Example I-8, (E)-6-oxa-3-aza-2(3,6)-imidazo[1,2-b]pyridazina-1(2,4)-pyridina-5(1,2)-benzenacyclooctaphane]	34%					
91.5 nM	< 5 nM	1.36 nM	94 nM	7.94 nM	Fc1ccc2c(c1)CNc1ccc3ncc(n3n1)-c1cc(ccn1)CO2 [Example I-5, (E)-5^4-fluoro-4-oxa-7-aza-1(3,6)-imidazo[1,2-b]pyridazina-2(2,4)-pyridina-5(1,2)-benzenacycloheptaphane]			11.6%			
72.2 nM	5.4 nM	2.57 nM	91.2 nM	3.66 nM	CC1Nc2ccc3ncc(n3n2)-c2cc(ccn2)COc2ccc(F)cc21 (stereo not drawn) [Example I-1, (E)-5^4-fluoro-6-methyl-4-oxa-7-aza-1(3,6)-imidazo[1,2-b]pyridazina-2(2,4)-pyridina-5(1,2)-benzenacycloheptaphane]				11.3%		
527 nM	6.1 nM	2.76 nM	526 nM	18 nM	c1ccc2c(c1)CNc1ccc3ncc(n3n1)-c1cc(ccn1)CO2 [Example I-6, (E)-4-oxa-7-aza-1(3,6)-imidazo[1,2-b]pyridazina-2(2,4)-pyridina-5(1,2)-benzenacycloheptaphane]					13.6%	
198 nM	< 5 nM	< 3 nM	220 nM	2.8 nM	CC1Nc2ccc3ncc(n3n2)-c2cncc(c2)COc2ccc(F)cc21 (stereo not drawn) [Example I-7, (E)-5^4-fluoro-6-methyl-4-oxa-7-aza-1(3,6)-imidazo[1,2-b]pyridazine-2(3,5)-pyridina-5(1,2)-benzenacycloheptaphane]						22.6%

Structure (SMILES)	IC50 [1]	IC50 [2]	IC50 [4]	IC50 [5]	IC50 [6]	ring closure, isolated yield ([3]; from OCCc1ccnc(-c2cnc3ccc(NCc4ccccc4O)nn23)c1, 14-membered ring, PPh3/DIAD, THF, 16.6 mM, 60.0 °C)	ring closure, isolated yield ([3]; from CC(Nc1ccc2ncc(-c3cc(CO)ccn3)n2n1)c1ccccc1O, 13-membered ring, SOCl2, K2CO3, DCM/DMF, 11.0 mM, 90.0 °C, 2 steps)	ring closure, isolated yield ([3]; from OCc1ccnc(-c2cnc3ccc(NCc4cc(F)ccc4O)nn23)c1, 13-membered ring, SOCl2, K2CO3, DCM/DMF, 20.3 mM, 90.0 °C, 2 steps)	ring closure, isolated yield ([3]; from CC(Nc1ccc2ncc(-c3cc(CO)ccn3)n2n1)c1cc(F)ccc1O, 13-membered ring, SOCl2, K2CO3, DCM/DMF, 15.2 mM, 90.0 °C, 2 steps)	ring closure, isolated yield ([3]; from OCc1ccnc(-c2cnc3ccc(NCc4ccccc4O)nn23)c1, 13-membered ring, SOCl2, K2CO3, DCM/DMF, 22.8 mM, 90.0 °C, 2 steps)	ring closure, isolated yield ([3]; from CC(Nc1ccc2ncc(-c3cncc(CO)c3)n2n1)c1cc(F)ccc1O, 13-membered ring, SOCl2, K2CO3, DCM/DMF, 15.7 mM, 90.0 °C, 2 steps)
CC1Nc2ccc3ncc(n3n2)-c2cc(ccn2)COc2ccccc21 (stereo not drawn) [Example I-3, (E)-6-methyl-4-oxa-7-aza-1(3,6)-imidazo[1,2-b]pyridazine-2(2,4)-pyridine-5(1,2)-benzenacycloheptaphane]	527 nM	7.1 nM	5.9 nM	526 nM	17 nM		39.2%				
